Reference: BindingDB's records for doi:10.1021/cb900218c (Case Western Reserve University, 2010)

Columns and labels:
Assay in all cases: colorimetric ATPase assay
[1] = biological target: Complex of Sliding-clamp-loader large subunit [R175K] and Sliding-clamp-loader small subunit (Enterobacteria phage T4, UniProt P04526, R175K); conditions: pH 7.5; 25 °C
Description: (§1) ATPase assay contained 10 mM Mg2+, 1uM 13/20 DNA, 500uM (r)NTP or (d)NTP, 500 nM gp45, and 500 nM gp44/62 in T4 buffer. ATPase activity was measured by monitoring the release of Pi using a malachite green assay (31) or via the hydrolysis of [gamma-32P]-ATP.

[2] = biological target: Complex of Sliding-clamp-loader large subunit [R175L] and Sliding-clamp-loader small subunit (Enterobacteria phage T4, UniProt P04526, R175L); conditions: pH 7.5; 25 °C
Chain of Complex of Sliding-clamp-loader large subunit [R175L] and Sliding-clamp-loader small subunit (P04526 as listed by the source R175L): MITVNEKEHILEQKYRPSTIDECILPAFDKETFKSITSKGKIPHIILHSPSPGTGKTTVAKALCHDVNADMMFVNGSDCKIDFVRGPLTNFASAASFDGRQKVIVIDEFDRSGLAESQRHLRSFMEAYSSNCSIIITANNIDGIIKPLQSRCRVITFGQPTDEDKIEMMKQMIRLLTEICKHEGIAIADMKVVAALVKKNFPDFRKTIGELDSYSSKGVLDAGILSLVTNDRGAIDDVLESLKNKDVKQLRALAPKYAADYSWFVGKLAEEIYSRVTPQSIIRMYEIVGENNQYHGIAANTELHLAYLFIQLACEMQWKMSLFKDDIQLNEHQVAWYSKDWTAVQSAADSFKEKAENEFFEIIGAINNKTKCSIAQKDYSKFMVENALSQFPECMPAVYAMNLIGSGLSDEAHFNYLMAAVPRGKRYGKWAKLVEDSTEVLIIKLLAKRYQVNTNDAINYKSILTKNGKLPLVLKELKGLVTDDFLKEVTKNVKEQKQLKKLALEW
Description: as §1

[3] = biological target: T1, Sliding-clamp-loader large/small subunit (Enterobacteria phage T4, UniProt P04526+P04527); conditions: pH 7.5; 25 °C
T1 sequence (P04526 whole entry): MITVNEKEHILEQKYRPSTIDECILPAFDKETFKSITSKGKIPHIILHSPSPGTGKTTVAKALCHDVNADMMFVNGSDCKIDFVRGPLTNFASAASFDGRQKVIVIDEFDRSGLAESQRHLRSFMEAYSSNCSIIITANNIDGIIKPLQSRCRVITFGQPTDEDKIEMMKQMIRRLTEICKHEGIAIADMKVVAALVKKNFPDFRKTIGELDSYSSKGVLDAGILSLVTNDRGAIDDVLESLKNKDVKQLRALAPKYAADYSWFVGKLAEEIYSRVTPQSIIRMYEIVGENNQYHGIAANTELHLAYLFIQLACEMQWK
T1 sequence (P04527 whole entry): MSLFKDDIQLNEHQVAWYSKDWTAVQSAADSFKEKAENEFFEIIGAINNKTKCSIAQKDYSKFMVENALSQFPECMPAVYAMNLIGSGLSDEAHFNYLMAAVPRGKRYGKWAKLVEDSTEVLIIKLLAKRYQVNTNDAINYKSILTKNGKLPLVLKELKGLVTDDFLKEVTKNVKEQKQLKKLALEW
Description: as §1

[4] = biological target: DNA polymerase III subunit tau (Escherichia coli, UniProt P06710); conditions: pH 7.5; 37 °C
Chain of DNA polymerase III subunit tau (P06710 whole entry): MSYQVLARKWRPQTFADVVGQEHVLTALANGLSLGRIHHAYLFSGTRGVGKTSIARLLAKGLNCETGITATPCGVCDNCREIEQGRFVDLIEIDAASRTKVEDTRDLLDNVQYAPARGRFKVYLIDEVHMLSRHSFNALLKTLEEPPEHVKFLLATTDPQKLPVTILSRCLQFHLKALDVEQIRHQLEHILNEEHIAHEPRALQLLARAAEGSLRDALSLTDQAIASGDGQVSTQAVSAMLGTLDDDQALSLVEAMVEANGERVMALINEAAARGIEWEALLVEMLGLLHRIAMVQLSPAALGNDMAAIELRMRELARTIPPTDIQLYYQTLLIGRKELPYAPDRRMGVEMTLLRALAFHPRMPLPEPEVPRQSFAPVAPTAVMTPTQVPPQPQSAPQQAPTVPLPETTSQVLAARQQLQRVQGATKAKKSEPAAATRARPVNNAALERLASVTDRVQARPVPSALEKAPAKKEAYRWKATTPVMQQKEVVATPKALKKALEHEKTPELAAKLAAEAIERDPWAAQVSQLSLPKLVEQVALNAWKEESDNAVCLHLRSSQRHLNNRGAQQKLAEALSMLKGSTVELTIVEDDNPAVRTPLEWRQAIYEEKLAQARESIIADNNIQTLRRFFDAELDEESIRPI

Chain of Complex of Sliding-clamp-loader large subunit [R175K] and Sliding-clamp-loader small subunit (P04526 as listed by the source R175K): as the sequence (P04526 as listed by the source R175L) above, with L175K counted along it

Compound | Ki [1] | Ki [2] | Ki [3] | Ki [4]
O=[N+]([O-])c1cccc2c1ccn2[C@H]1C[C@H](O)[C@@H](COP(=O)(O)OP(=O)(O)OP(=O)(O)O)O1 [4-nitro-indolyl-2'-deoxyriboside triphosphate] | 30.2 µM | 41.6 µM | 34.2 µM | 11.1 µM
Nc1ccc2c(ccn2[C@H]2C[C@H](O)[C@@H](COP(=O)(O)OP(=O)(O)OP(=O)(O)O)O2)c1 [5-amino-indolyl-2'-deoxyriboside triphosphate] |  |  | > 200 µM | 45 µM
O=P(O)(O)OP(=O)(O)OP(=O)(O)OC[C@H]1O[C@@H](n2ccc3cc(C4=CCCCC4)ccc32)C[C@@H]1O [5-cyclohexene-indolyl-2'-deoxyriboside triphosphate] |  |  | 10 µM | 11.8 µM
O=P(O)(O)OP(=O)(O)OP(=O)(O)OC[C@H]1O[C@@H](n2ccc3cc(C4CCCCC4)ccc32)C[C@@H]1O [5-cyclohexyl-indolyl-2'-deoxyriboside triphosphate] |  |  | 47.5 µM | 24 µM
CCc1ccc2c(ccn2[C@H]2C[C@H](O)[C@@H](COP(=O)(O)OP(=O)(O)OP(=O)(O)O)O2)c1 [5-ethyl-indolyl-2'-deoxyriboside triphosphate] | 25.2 µM | 11 µM | 81.5 µM | 9 µM
C=Cc1ccc2c(ccn2[C@H]2C[C@H](O)[C@@H](COP(=O)(O)OP(=O)(O)OP(=O)(O)O)O2)c1 [5-ethylene-indolyl-2'-deoxyriboside triphosphate] | 26.2 µM | 34 µM | > 200 µM | 30 µM
O=P(O)(O)OP(=O)(O)OP(=O)(O)OC[C@H]1O[C@@H](n2ccc3cc(F)ccc32)C[C@@H]1O [5-fluoro-indolyl-2'-deoxyriboside triphosphate] |  |  | > 200 µM | 34 µM
O=[N+]([O-])c1ccc2c(ccn2[C@H]2C[C@H](O)[C@@H](COP(=O)(O)OP(=O)(O)OP(=O)(O)O)O2)c1 [5-nitro-indolyl-2'-deoxyriboside triphosphate] |  |  |  | 21.7 µM
O=P(O)(O)OP(=O)(O)OP(=O)(O)OC[C@H]1O[C@@H](n2ccc3cc(-c4ccccc4)ccc32)C[C@@H]1O [5-phenyl-indolyl-2'-deoxyriboside triphosphate] |  |  | 42 µM | 7.5 µM
O=[N+]([O-])c1ccc2ccn([C@H]3C[C@H](O)[C@@H](COP(=O)(O)OP(=O)(O)OP(=O)(O)O)O3)c2c1 [6-nitro-indolyl-2'-deoxyriboside triphosphate] | 9.1 µM | 5 µM | 5.1 µM | 8.1 µM
Nc1ncnc2c1ncn2C1OC(COP(=O)(O)OP(=O)(O)OP(O)(O)=S)[C@@H](O)[C@H]1O (stereo partly specified) [ATP{gamma}S] | 14 µM | 33.2 µM | 28.9 µM | 13 µM
